biological target: T1, NLRP3 inflammasome (Homo sapiens, UniProt Q96P20); assay: IL-1β secretion assay (NLRP3 IC50) in LPS-primed, nigericin-activated THP-1 cells, HTRF; assay type: cell-based; settings: monocytic THP-1 cells; LPS 10 ng/mL 3 h priming, then compound + nigericin 10 μM 2 h; relative IC50, 10 concentrations, geometric mean
T1 construct: endogenous in cells; host or cells: THP-1 monocytic cells
Method: Monocytic THP-1 cells were maintained in RPMI 1640 media (Gibco 21875)+10% FBS, (Gibco 10500)+1% penicillin/streptomycin (Gibco 15140-122). Cells were then plated at 40,000 cells per well in 384-well cell culture plates (CoRNning 3542) and maintained with RPMI1640 (Gibco 11835)+5% FBS (Gibco 10500). Activation of the NLRP3 inflammasome requires both an NF-kB-dependent priming step and the addition of a NLRP3 activator. The priming step was induced by LPS (10 ng/mL, InvivoGen ref tlrl-3pelps) for 3 h at 37° C., then compound, in a 1:3 serial dilution series in DMSO (final concentration DMSO 0.1%), and the activator nigericin (Sigma Aldrich, ref: SML1779) 10 μM (final concentration) were added to the cells and co-incubated for 2 hours. 16 μL supernatant was removed, and IL-1β levels were monitored using an HTRF assay (Human IL1b Kits HTRF Cisbio ref: 62HILBPEH) according to manufacturers' instructions.
Data were expressed as percentage of inhibition (I %) as compared to a maximum signal control containing no small molecule (I %=0%) according to the formula: 1%=(1−((Sample−Min))/((Max−Min)))×100, where: • Sample: Signal obtained in the presence of each compound tested, • Max: Maximum signal in the absence of compound added, • Min: Minimum or background signal obtained in the absence of activation signal.
Relative IC50 (IC50 rel) were obtained from a dose response curve with 10 concentrations. Final IC50 rels are expressed as the geometric mean.
Relative IC50 values were estimated with Biost@t-SPEED v2.4 internal software based on SAS system using the 4-parameter logistic model according to Ratkovsky and Reedy (D. A. Ratkovsky, T. J. Reedy, Choosing near-linear parameters in the four parameters logistic model radioligands and related assays. Biometrics, 42 (1986), 575-582): Y=A+C/((1+exp(−B*(log(X)−M)))), where: • A: Lower asymptote (BOTTOM), • A+C: Upper asymptote (TOP), • M: the logarithm of the concentration estimated at the inflexion point (the logarithm of the relative IC50), • B: Slope at the inflexion point of the curve.

T1 sequence (Q96P20 whole entry): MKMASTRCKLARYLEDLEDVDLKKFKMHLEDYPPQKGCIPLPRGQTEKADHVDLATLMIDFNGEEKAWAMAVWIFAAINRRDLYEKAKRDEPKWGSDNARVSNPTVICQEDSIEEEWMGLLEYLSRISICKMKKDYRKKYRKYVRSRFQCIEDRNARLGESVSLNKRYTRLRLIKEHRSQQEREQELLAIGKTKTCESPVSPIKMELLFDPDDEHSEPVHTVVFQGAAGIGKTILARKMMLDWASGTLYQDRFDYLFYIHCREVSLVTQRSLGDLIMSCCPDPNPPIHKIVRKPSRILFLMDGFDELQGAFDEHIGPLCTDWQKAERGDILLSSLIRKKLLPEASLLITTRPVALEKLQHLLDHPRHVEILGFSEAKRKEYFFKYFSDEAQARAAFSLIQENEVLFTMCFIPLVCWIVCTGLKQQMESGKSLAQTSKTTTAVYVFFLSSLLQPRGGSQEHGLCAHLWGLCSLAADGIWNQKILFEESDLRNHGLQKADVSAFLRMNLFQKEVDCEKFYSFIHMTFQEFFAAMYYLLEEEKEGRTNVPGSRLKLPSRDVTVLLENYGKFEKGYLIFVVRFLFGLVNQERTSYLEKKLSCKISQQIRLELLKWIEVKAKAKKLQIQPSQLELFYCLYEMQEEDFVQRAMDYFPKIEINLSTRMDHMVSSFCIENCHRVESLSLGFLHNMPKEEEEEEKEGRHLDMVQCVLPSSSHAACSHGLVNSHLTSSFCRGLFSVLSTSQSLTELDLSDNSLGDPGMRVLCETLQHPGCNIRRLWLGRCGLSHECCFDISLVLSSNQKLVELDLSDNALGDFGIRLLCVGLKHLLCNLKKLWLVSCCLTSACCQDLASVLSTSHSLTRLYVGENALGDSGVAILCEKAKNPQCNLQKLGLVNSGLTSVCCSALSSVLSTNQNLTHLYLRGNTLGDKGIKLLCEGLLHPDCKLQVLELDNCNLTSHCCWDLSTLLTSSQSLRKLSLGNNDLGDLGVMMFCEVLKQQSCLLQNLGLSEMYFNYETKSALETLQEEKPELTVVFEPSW

Row | IC50 | SMILES
1 | < 0.3 nM | CCc1cc(C)cc(O)c1-c1ccc(N2CC[C@@H]3CCN(C)C[C@@H]32)nn1 (single isomer, unassigned) [Example 477]
2 | 172 nM | CN1CC[C@@H]2CCN(c3cc(C(F)F)c(-c4ccc(C(F)(F)F)cc4O)nn3)[C@@H]2C1 (single isomer, unassigned) [Example 482]
3 | 1 nM | CN1CC[C@H]2CCN(c3cc(C(F)F)c(-c4ccc(C(F)(F)F)cc4O)nn3)[C@H]2C1 (single isomer, unassigned) [Example 483]
4 | 45 nM | CCN1CC[C@@H]2CCN(c3cc(C(F)F)c(-c4ccc(C(F)(F)F)cc4O)nn3)[C@@H]2C1 (single isomer, unassigned) [Example 485]
5 | < 0.3 nM | CCN1CC[C@H]2CCN(c3cc(C(F)F)c(-c4ccc(C(F)(F)F)cc4O)nn3)[C@H]2C1 (single isomer, unassigned) [Example 486]
6 | 1 nM | Cc1cc(C)c(-c2cc(C(F)F)c(N3CC[C@H]4CCN(C)C[C@H]43)nn2)c(O)c1 (single isomer, unassigned) [Example 487]
7 | 912 nM | Cc1cc(C)c(-c2cc(C(F)F)c(N3CC[C@@H]4CCN(C)C[C@@H]43)nn2)c(O)c1 (single isomer, unassigned) [Example 488]
8 | 232 nM | CCN1CC[C@@H]2CCN(c3cc(C(F)F)c(-c4ccc(C)cc4O)nn3)[C@@H]2C1 (single isomer, unassigned) [Example 489]
9 | 1 nM | CCN1CC[C@H]2CCN(c3cc(C(F)F)c(-c4ccc(C)cc4O)nn3)[C@H]2C1 (single isomer, unassigned) [Example 490]
10 | 185 nM | CCc1cc(C(F)(F)F)cc(O)c1-c1ccc(N2CC[C@H]3CCN(C)C[C@H]32)nn1 (single isomer, unassigned) [Example 491]
11 | 3 nM | CCc1cc(C(F)(F)F)cc(O)c1-c1ccc(N2CC[C@@H]3CCN(C)C[C@@H]32)nn1 (single isomer, unassigned) [Example 492]
12 | 171 nM | CCc1cc(Cl)cc(O)c1-c1ccc(N2CC[C@H]3CCN(C)C[C@H]32)nn1 (single isomer, unassigned) [Example 493]
13 | 1 nM | CCc1cc(Cl)cc(O)c1-c1ccc(N2CC[C@@H]3CCN(C)C[C@@H]32)nn1 (single isomer, unassigned) [Example 494]
14 | 546 nM | CCN1CC[C@H]2CCN(c3ccc(-c4c(C)cc(Cl)cc4O)nn3)[C@H]2C1 (single isomer, unassigned) [Example 496]
15 | 0.4 nM | CCN1CC[C@H]2CCN(c3ccc(-c4c(C)cc(Cl)cc4O)nn3)[C@H]2C1 (single isomer, unassigned) [Example 497]
16 | 951 nM | CCN1CC[C@H]2CCN(c3ccc(-c4c(C)cccc4O)nn3)[C@H]2C1 (single isomer, unassigned) [Example 498]
17 | 3 nM | CCN1CC[C@@H]2CCN(c3ccc(-c4c(C)cccc4O)nn3)[C@@H]2C1 (single isomer, unassigned) [Example 499]
18 | 62 nM | CN1CC[C@H]2CCN(c3cc(C(F)F)c(-c4ccc(Cl)cc4O)nn3)[C@H]2C1 (single isomer, unassigned) [Example 500]
19 | < 0.3 nM | CN1CC[C@@H]2CCN(c3cc(C(F)F)c(-c4ccc(Cl)cc4O)nn3)[C@@H]2C1 (single isomer, unassigned) [Example 501]

Row | IC50 | SMILES
20 | 347 nM | Cc1cc(Cl)cc(O)c1-c1ccc(N2CC[C@@H]3CCN(C)C[C@@H]32)nn1 (single isomer, unassigned) [Example 502]
21 | 0.5 nM | Cc1cc(Cl)cc(O)c1-c1ccc(N2CC[C@H]3CCN(C)C[C@H]32)nn1 (single isomer, unassigned) [Example 503]
22 | 1080 nM | CCN1CC[C@H]2CCN(c3ccc(-c4c(C)cc(C)cc4O)nn3)[C@H]2C1 (single isomer, unassigned) [Example 504]
23 | 0.4 nM | CCN1CC[C@@H]2CCN(c3ccc(-c4c(C)cc(C)cc4O)nn3)[C@@H]2C1 (single isomer, unassigned) [Example 505]
24 | 135 nM | Cc1ccc(-c2nnc(N3CC[C@@H]4CCN(C)C[C@@H]43)cc2C(F)F)c(O)c1 (single isomer, unassigned) [Example 506]
25 | 1 nM | Cc1ccc(-c2nnc(N3CC[C@H]4CCN(C)C[C@H]43)cc2C(F)F)c(O)c1 (single isomer, unassigned) [Example 507]
26 | 280 nM | CC(=O)N1CC[C@@H]2CCN(c3cc(C(F)F)c(-c4ccc(C(F)(F)F)cc4O)nn3)[C@@H]2C1 (single isomer, unassigned) [Example 510]
27 | 571 nM | CC(=O)N1CC[C@H]2CCN(c3cc(C(F)F)c(-c4ccc(C(F)(F)F)cc4O)nn3)[C@H]2C1 (single isomer, unassigned) [Example 511]
28 | 276 nM | CC(=O)N1CC[C@@H]2CCN(c3nnc(-c4c(C)cc(C)cc4O)cc3C(F)F)[C@@H]2C1 (single isomer, unassigned) [Example 512]
29 | 1770 nM | CC(=O)N1CC[C@H]2CCN(c3nnc(-c4c(C)cc(C)cc4O)cc3C(F)F)[C@H]2C1 (single isomer, unassigned) [Example 513]
30 | 1920 nM | Cc1cc(C)c(-c2ccc(N3CC4(CC[C@@H](O)C4)C3)nn2)c(O)c1 (stereo in doubt) [Example 94, 2-[6-(2-hydroxy-4,6-dimethyl-phenyl)pyridazin-3-yl]-2-azaspiro[3.4]octan-6-ol]
31 | 188 nM | Cc1cc(C(F)(F)F)cc(O)c1-c1ccc(N2CCO[C@H](CO)C2=O)nn1 (stereo in doubt) [Example 368, 2-(hydroxymethyl)-4-[6-[2-hydroxy-6-methyl-4-(trifluoromethyl)phenyl]pyridazin-3-yl]morpholin-3-one]
32 | 1960 nM | Cc1cc(C)c(-c2ccc(N3CCC(C#N)CC3)nn2)c(O)c1 [Example 2, 1-[6-(2-hydroxy-4,6-dimethyl-phenyl)pyridazin-3-yl]piperidine-4-carbonitrile]
33 | 2030 nM | Cc1cc(C)c(-c2ccc(N3CCC4(CC3)CC(O)C4)nn2)c(O)c1 [Example 3, 7-[6-(2-hydroxy-4,6-dimethyl-phenyl)pyridazin-3-yl]-7-azaspiro[3.5]nonan-2-ol]
34 | 5470 nM | Cc1cc(C)c(-c2ccc(N3CCC4(CC3)CNC4)nn2)c(O)c1 [Example 7, 2-[6-(2,7-diazaspiro[3.5]nonan-7-yl)pyridazin-3-yl]-3,5-dimethyl-phenol; 2,2,2-trifluoroacetic acid]
35 | 1480 nM | NCC1CCN(c2ccc(-c3c(O)cc(Cl)cc3Cl)nn2)CC1 [Example 19, 2-[6-[4-(aminomethyl)-1-piperidyl]pyridazin-3-yl]-3,5-dichloro-phenol]
36 | 638 nM | Cc1cc(C(F)(F)F)cc(O)c1-c1ccc(N2CCOC(CN(C)C)C2)nn1 (stereo not shown) [Example 24, 2-[6-[2-[(dimethylamino)methyl]morpholin-4-yl]pyridazin-3-yl]-3-methyl-5-(trifluoromethyl)phenol]
37 | 1260 nM | Cc1cc(C(F)(F)F)cc(O)c1-c1ccc(N2CCO[C@H](CN(C)C)C2)nn1 [Example 27, 2-[6-[(2R)-2-[(dimethylamino)methyl]morpholin-4-yl]pyridazin-3-yl]-3-methyl-5-(trifluoromethyl)phenol]
